Common to all, as to assay type: in vivo
The test system of assay [1] is Erysiphe graminis f. sp. tritici. The assay is described as follows: Test A: preventive spray on wheat seedlings, wheat powdery mildew, disease rating. To be noted: wheat seedlings sprayed to run-off, inoculated the following day with Erysiphe graminis f. sp. tritici, rated after 7 days at 20° C.; test concentration not given. The essentials: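 Wheat seedlings sprayed to run-off with compound suspension (200 ppm ≈ 500 g/ha) in acetone/water with surfactant, inoculated next day with Erysiphe graminis f. sp. tritici spores. After 7 days at 20 °C, disease rated 0–100 as % control relative to untreated plants.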

The test system of the next assay is Puccinia recondita. The assay is described as follows: Test B: preventive spray on wheat seedlings, wheat leaf rust, disease rating. The following applies: wheat seedlings sprayed to run-off, inoculated the following day with Puccinia recondita, 24 h saturated atmosphere then 6 days at 20° C.; test concentration not given. The method in brief:
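Compound suspended in acetone/water (50/50) with 250 ppm Trem 014 surfactant, sprayed to run-off on wheat seedlings (200 ppm ≈ 500 g/ha); P. recondita spores inoculated next day. Plants held 24 h saturated at 20° C, then 6 days at 20° C; disease rated as % control relative to untreated (100 = full control).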

The next assay relates to Septoria nodorum. Briefly: Test C: preventive spray on wheat seedlings, Septoria glume blotch, disease rating. The following applies: wheat seedlings sprayed to run-off, inoculated the following day with Septoria nodorum, 48 h saturated atmosphere then 9 days at 20° C.; test concentration not given. The method in brief: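 Wheat seedlings were sprayed to run-off with compound suspensions in acetone/water containing 250 ppm Trem 014 (200 ppm equals 500 g/ha), then inoculated with Septoria nodorum spores next day. Plants were held 48 h saturated at 20° C., then 9 days at 20° C. Disease control was rated 0–100 relative to controls.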

As to `C=CCCCOc1cc(C)c(N=CN(C)C)cc1C` [Compound 6], the “Test A disease control rating (100 = 100% disease control, 0 = no disease control relative to the controls)” value in assay [1] was 0%. For the same compound, the “Test B disease control rating (100 = 100% disease control, 0 = no disease control relative to the controls)” value in the assay with Puccinia recondita was determined as 100%. Also, the “Test C disease control rating (100 = 100% disease control, 0 = no disease control relative to the controls)” value in the assay on Septoria nodorum is given as 60%.
The like results for `CCN(C)C(=S)Nc1cc(C)c(OCCC[Si](C)(C)CC)cc1C` [compound 77] were, in that order, 100%, 100% and 100%.
The like results for `COC(=O)C(=Nc1cc(C)c(OCCC[Si](C)(C)C)cc1C)N(C)C` [compound 128] were, in that order, 98%, 95% and 73%.
Consider `Cc1cc(OCCCC(C)C(C)C)c(C)cc1N=CN(C)C` (stereo not drawn) [Compound 49], for which, in assay [1], the “Test A disease control rating (100 = 100% disease control, 0 = no disease control relative to the controls)” value is 99%. In the assay with Puccinia recondita, the “Test B disease control rating (100 = 100% disease control, 0 = no disease control relative to the controls)” value is 99%. Further, the “Test C disease control rating (100 = 100% disease control, 0 = no disease control relative to the controls)” value in the assay with Septoria nodorum turned out to be 83%.
For the compound `Cc1cc(OCCCC(C)(Cl)C(C)C)c(C)cc1N=CN(C)C` (stereo not drawn) [Compound 46], in assay [1], the “Test A disease control rating (100 = 100% disease control, 0 = no disease control relative to the controls)” value amounted to 97%. In the assay on Puccinia recondita, the “Test B disease control rating (100 = 100% disease control, 0 = no disease control relative to the controls)” value amounted to 100%. Moreover, the “Test C disease control rating (100 = 100% disease control, 0 = no disease control relative to the controls)” value in the assay with Septoria nodorum stood at 97%.
For `CCN(C)C(=S)Nc1cc(Cl)c(OCCCC(C)C)c(Cl)c1C` [compound 118], in assay [1], the “Test A disease control rating (100 = 100% disease control, 0 = no disease control relative to the controls)” value was 99%. In the assay with Puccinia recondita, the “Test B disease control rating (100 = 100% disease control, 0 = no disease control relative to the controls)” value is reported as 100%. In addition, the “Test C disease control rating (100 = 100% disease control, 0 = no disease control relative to the controls)” value in the assay on Septoria nodorum is listed as 78%.
In the same order, the values of `CCCC(CCC(C)C)Oc1cc(C)c(N=C(C)N(C)C)cc1C` (stereo not drawn) [compound 97] are 0%, 45% and 85%.
The like results for `CCN(C)C(=S)Nc1cc(Cl)c(OCCC[Si](C)(C)C)c(Cl)c1C` [compound 181] were, in that order, 100%, 100% and 67%.
As for `Cc1cc(OCCC[Si](C)(C)C)c(C(C)C)cc1N=CN(C)C(C)C` [compound 74], the “Test A disease control rating (100 = 100% disease control, 0 = no disease control relative to the controls)” value in assay [1] was 100%. Moreover, the “Test B disease control rating (100 = 100% disease control, 0 = no disease control relative to the controls)” value with Puccinia recondita worked out at 100%. The “Test C disease control rating (100 = 100% disease control, 0 = no disease control relative to the controls)” value in the assay with Septoria nodorum is listed as 100%.
With `CC(C)CCCOc1cc(Cl)c(NC(=S)N(C)C)cc1Cl` [compound 123], in assay [1], the “Test A disease control rating (100 = 100% disease control, 0 = no disease control relative to the controls)” value stood at 54%. In addition, the “Test B disease control rating (100 = 100% disease control, 0 = no disease control relative to the controls)” value with Puccinia recondita was 46%. The “Test C disease control rating (100 = 100% disease control, 0 = no disease control relative to the controls)” value with Septoria nodorum was determined as 100%.
The like results for `CCN(C)C(=S)Nc1cc(Cl)c(OCCC[Si](C)(C)C)cc1C` [compound 169] were, in that order, 99%, 100% and 100%.
As for `CCN(C)C(=S)Nc1cc(Cl)c(OCCCC(C)(C)C)cc1Cl` [compound 187], in assay [1], the “Test A disease control rating (100 = 100% disease control, 0 = no disease control relative to the controls)” value was determined as 100%. For the same compound, in the assay on Puccinia recondita, the “Test B disease control rating (100 = 100% disease control, 0 = no disease control relative to the controls)” value is 99%. Further, the “Test C disease control rating (100 = 100% disease control, 0 = no disease control relative to the controls)” value in the assay with Septoria nodorum worked out at 78%.
In the same order, the values of `COC(C)(C)CCCOc1cc(C)c(N=CN(C)C)cc1C` [Compound 43] are 96%, 100% and 93%.
In the same order, the values of `CCCCCOc1cc(C)c(N=CN(C)C)cc1C` [Compound 19] are 96%, 100% and 100%.
In the same order, the values of `CCN(CC)C(=S)Nc1cc(Cl)c(OCCCC(C)(C)C)cc1C` [compound 120] are 91%, 8% and 0%.
Take `CCN(C)C=Nc1cc(C)c(OCCCC(C)C)c(Cl)c1C` [compound 200]: the “Test A disease control rating (100 = 100% disease control, 0 = no disease control relative to the controls)” value in assay [1] was determined as 100%. The “Test B disease control rating (100 = 100% disease control, 0 = no disease control relative to the controls)” value in the assay with Puccinia recondita worked out at 100%. Also, in the assay on Septoria nodorum, the “Test C disease control rating (100 = 100% disease control, 0 = no disease control relative to the controls)” value is reported as 100%.
As to `Cc1cc(OCCC(C)CC(C)(C)C)c(C)cc1N=CN(C)C` (stereo not drawn) [Compound 11], in assay [1], the “Test A disease control rating (100 = 100% disease control, 0 = no disease control relative to the controls)” value is listed as 97%. The “Test B disease control rating (100 = 100% disease control, 0 = no disease control relative to the controls)” value in the assay with Puccinia recondita amounted to 100%. In the assay on Septoria nodorum, the “Test C disease control rating (100 = 100% disease control, 0 = no disease control relative to the controls)” value is 100%.
On to `CCCC(CCC)Oc1cc(C)c(N=C(C)N(C)C)cc1C` [compound 101], for which, in assay [1], the “Test A disease control rating (100 = 100% disease control, 0 = no disease control relative to the controls)” value was 100%. Further, the “Test B disease control rating (100 = 100% disease control, 0 = no disease control relative to the controls)” value with Puccinia recondita is 100%. The “Test C disease control rating (100 = 100% disease control, 0 = no disease control relative to the controls)” value with Septoria nodorum was determined as 100%.
Take `CCN(CC)C(=S)Nc1cc(C)c(OCCC[Si](C)(C)C)cc1C` [compound 163]: in assay [1], the “Test A disease control rating (100 = 100% disease control, 0 = no disease control relative to the controls)” value worked out at 32%. Further, the “Test B disease control rating (100 = 100% disease control, 0 = no disease control relative to the controls)” value in the assay with Puccinia recondita is on record as 100%. Further, the “Test C disease control rating (100 = 100% disease control, 0 = no disease control relative to the controls)” value with Septoria nodorum was determined as 73%.
The like results for `CCCC(CCC(C)C)Nc1cc(C)c(N=CN(C)C)cc1C` (stereo not drawn) [compound 148] were, in that order, 0%, 0% and 47%.
Turning to `CCN(C)C(=S)Nc1cc(Cl)c(OCCC[Si](C)(C)CC)cc1C` [compound 84], in assay [1], the “Test A disease control rating (100 = 100% disease control, 0 = no disease control relative to the controls)” value came out at 100%. Moreover, in the assay on Puccinia recondita, the “Test B disease control rating (100 = 100% disease control, 0 = no disease control relative to the controls)” value is on record as 100%. Moreover, the “Test C disease control rating (100 = 100% disease control, 0 = no disease control relative to the controls)” value in the assay with Septoria nodorum is on record as 100%.
On to `CCN(CC)C(=S)Nc1cc(Cl)c(OCCCC(C)C)c(Cl)c1C` [compound 117], for which the “Test A disease control rating (100 = 100% disease control, 0 = no disease control relative to the controls)” value in assay [1] was found to be 29%. The “Test B disease control rating (100 = 100% disease control, 0 = no disease control relative to the controls)” value with Puccinia recondita worked out at 37%. In addition, the “Test C disease control rating (100 = 100% disease control, 0 = no disease control relative to the controls)” value with Septoria nodorum is recorded as 60%.

The values are drawn from patent US20050182025A1, “Amidinylphenyl compounds and their use as fungicides” (priority 2002, published 2005).
